According to patent US7129218B2, “Use of rhamnolipids in wound healing, treatment and prevention of gum disease and periodontal regeneration” (Paradigm Biomedical, Inc., priority 1999, dated 2006):

How the values were obtained:
[1] = system: burn wounds; experiment: Burn wounds, 7% body surface, topical treatment (rats); assay type: in vivo, Sprague-Dawley rats; conditions: for mean value of collagen tissue: histopathology day 45; for mean value of collagen concentration relative to placebo group 1 D taken as 100%: day 45
Protocol: The wounding of animals was performed according to the Protocol for Animal Use and Care at the University of California-Davis (hereafter UC-Davis). The entire animal protocol required 70 Sprague-Dawley rats: 30 rats for incision wounds and 40 rats for burn wounds. Among them 36 rats were burned over 7% of their skin and 4 rats were burned over 15% of their skin. Incision wounds of whole skin and burn wounds were treated topically with 2 test doses of the pharmaceutical preparation of di-rhamnolipid BAC-3. […] D.E.A. Hamburg); 23.8 g Lanolinum (Producer I.O.I. Hamburg); 4.7 g Cholesterin (Producer: Solvay, Wiena, Austria); Water Number: 320); or b). 1%; 0.1% active rhamnolipid (BAC-3) with antiseptic (chlorhexidine hydrochloride-[…]). Eucerin with BAC-3 was administrated twice daily during healing. The same experiment had one control group without the treatment, and one control group which was treated with ointment+1% chlorhexidine hydrochloride. During the experiment, animal body weight and behavior was checked every third day, and photographs were taken periodically. Burn wounds. The consecutive burn wounds should ideally be identical in depth and extent. The standard method defines the size and location of the burn wound, the temperature gradient, duration of exposure and method of applying the burn. The wound surface areas tested were of two different sizes. One size to 7% of the body surface, which enables one to compare the rate of wound healing with different percentage of BAC-3 and the other size to 15% of the body surface, which is a sufficient size so that healing could not occur by contraction alone. On the other hand, the total wound surface area should not cause major systematic problems. The latter can be concluded from undisturbed weight gain of the animals. The standard animal burn was performed by techniques and device described by Walker. The burning devices were prepared using a model device ordered from U.S. Army Surgical Research Unit, Experimental Surgery, Army Medical Center, Fort Sam Houston, Tex. 78234. […] The surface of the skin was measured for every animal using Mech's formula: A=kW^2/3; A=surface area in cm^2; W=body weight in grams; k=10. Method of burning. Each animal was anesthetized with sodium pentobarbital administered i/p (5 mg/25 g). (Producer: Veterinary Laboratory Inc. Lenexa, Kans.). The hair over the dorsum was clipped with animal clippers. The animal was placed supine in the burning device and the extremities were tied; the malleable retractor was placed over the animal and secured snugly with plastic straps. The entire device was then picked up by the retractor ends with forceps and the exposed area was immersed in boiling water. Ten seconds of exposure was sufficient to produce a full-thickness burn. On removal from the water, the dorsum was quickly dried by rolling on a towel and the animal was released and individually caged. This procedure produced a uniform burn with sharp margins. On post burn days 7, 14 and 45, animals were sacrificed by overdose of sodium pentobarbital and skin specimens were taken for histopathology. Specimens included the wound bed as well as the healthy skin of the wound margins. The specimens were fixed, and two stainings were routinely performed: Hematoxylin-Eosin (H&E) for microscopic evaluation, Verhoeff's staining for a better visualization of the crust and the regenerating dermis, and the alpha smooth muscle acting to identify the myofibroblasts. Microscopic findings were interpreted by a veterinarian pathologist. During the microscopic and macroscopic observations, four wound healing parameters were evaluated: crust formation, re-epithelialization, formation of granulation tissue and inflammation. 36 rats were divided into 6 groups. Each group had six animals. After burning rats according to the above-described procedure, each rat was caged individually. […]

[2] = system: burn wounds; experiment: Burn wounds, 15% body surface, treatment started 50 days after burning (rats); assay type: in vivo, Sprague-Dawley rats; conditions: 15% burn, open wounds after 50 days placebo; 1% BAC-3 ointment, tapering schedule
From the text: The wound surface areas tested were of two different sizes. One size to 7% of the body surface, which enables one to compare the rate of wound healing with different percentage of BAC-3 and the other size to 15% of the body surface, which is a sufficient size so that healing could not occur by contraction alone. On the other hand, the total wound surface area should not cause major systematic problems. The latter can be concluded from undisturbed weight gain of the animals. The standard animal burn was performed by techniques and device described by Walker. The burning devices were prepared using a model device ordered from U.S. Army Surgical Research Unit, Experimental Surgery, Army Medical Center, Fort Sam Houston, Tex. 78234. The devices had apertures which enabled exposure of 7% and 15% of the total rat skin surface. The surface of the skin was measured for every animal using Mech's formula: A=kW^2/3; A=surface area in cm^2; W=body weight in grams; k=10.
Method of burning. Each animal was anesthetized with sodium pentobarbital administered i/p (5 mg/25 g). (Producer: Veterinary Laboratory Inc. Lenexa, Kans.). The hair over the dorsum was clipped with animal clippers. The animal was placed supine in the burning device and the extremities were tied; the malleable retractor was placed over the animal and secured snugly with plastic straps. […]

## CCCCCCCC(CC(=O)O)OC(=O)CC(CCCCCCC)OC1OC(C)C(O)C(O)C1OC1OC(C)C(O)C(O)C1O [BAC-3, (α-L-rhamnopyranosyl-(1,2)-α-L-rhamnopyranosyl)-3-hyroxydecanoyl-3-hydroxydecanoic acid]
[1]; 1% and 0.1% BAC-3 in eucerin vs vehicle, 45 days
  body weights among the treatment groups: no significant differences
[1]; 7% burn, 0.1% BAC-3 in eucerin twice daily, no chlorhexidine, FIG. 1
  rate of burn wound closure (decrease in wound size) vs vehicle alone: significantly faster
[1]; 7% burn, 0.1% BAC-3 in eucerin, days 14, 21 and 28, p<0.05 by ANOVA, FIG. 2
  burn wound size (distance across wound edges) vs vehicle alone: significantly smaller
[1]; 7% burn, BAC-3 1% or 0.1% ointment with or without chlorhexidine vs placebo, 45 days
  crust formation, difference between groups: no significant differences
[1]; 7% burn, group 1-A, 1% BAC-3 in ointment twice daily
  granulation tissue: prominently developed
[1]; 7% burn, group 1-B, 0.1% BAC-3 in ointment twice daily
  re-epithelization in the middle part of the burn wounds: faster
[1]; 7% burn, group 1 A, 1% BAC-3 ointment, no chlorhexidine
  mean value of collagen tissue: 8.48 mm^2
[1]; 7% burn, group 1 B, 0.1% BAC-3 ointment, no chlorhexidine
  mean value of collagen tissue: 5.15 mm^2
[1]; 7% burn, group 2-A, 1% BAC-3 in ointment plus 1% chlorhexidine hydrochloride twice daily
  granulation tissue: prominently developed
[1]; 7% burn, group 2-B, 0.1% BAC-3 in ointment plus 1% chlorhexidine hydrochloride twice daily
  re-epithelization in the middle part of the burn wounds: faster
[1]; group 1-A, 1% BAC-3 in ointment, compared to the other groups
  hair growth during the healing period: very prominent
[1]; group 1 A, 1% BAC-3
  mean value of collagen concentration relative to placebo group 1 D taken as 100%: 131.26%
[1]; group 1 B, 0.1% BAC-3
  mean value of collagen concentration relative to placebo group 1 D taken as 100%: 79.72%
[2]
  time to whole epithelization in all animals: 30 days
